Reference: PubChem BioAssay (NCI)
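All cell lines were grown in 96-well plates and treated with compound for 48 hours. Here, GI50 denotes the concentration required for 50% inhibition of growth. TGI: concentration producing complete growth inhibition.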

What was measured:
Assay in all cases: NCI tumour cell line growth inhibition, 48 h
OVCAR-4 ovarian = test system: OVCAR-4 ovarian
UACC-257 melanoma = test system: UACC-257 melanoma
NCI-H522 lung = test system: NCI-H522 lung
HOP-62 NSCLC = test system: HOP-62 NSCLC
MOLT-4 leukemia = test system: MOLT-4 leukemia
BT-549 breast = test system: BT-549 breast
U251 CNS = test system: U251 CNS
PC-3 prostate = test system: PC-3 prostate
NCI/ADR-RES ovarian = test system: NCI/ADR-RES ovarian
HS 578T breast = test system: HS 578T breast
T-47D breast = test system: T-47D breast
MALME-3M melanoma = test system: MALME-3M melanoma
ACHN renal = test system: ACHN renal
NCI-H460 lung = test system: NCI-H460 lung
A498 renal = test system: A498 renal
HCT-116 colon = test system: HCT-116 colon
SF-268 CNS = test system: SF-268 CNS
HCT-15 colon = test system: HCT-15 colon
SR leukemia = test system: SR leukemia
A549 NSCLC = test system: A549 NSCLC
SK-MEL-28 melanoma = test system: SK-MEL-28 melanoma
UO-31 renal = test system: UO-31 renal
CAKI-1 renal = test system: CAKI-1 renal
LOX IMVI melanoma = test system: LOX IMVI melanoma
SW-620 colon = test system: SW-620 colon
IGROV1 ovarian = test system: IGROV1 ovarian
SF-295 CNS = test system: SF-295 CNS
K-562 leukemia = test system: K-562 leukemia
SNB-19 CNS = test system: SNB-19 CNS
OVCAR-3 ovarian = test system: OVCAR-3 ovarian
SK-MEL-2 melanoma = test system: SK-MEL-2 melanoma
RPMI-8226 leukemia = test system: RPMI-8226 leukemia
NCI-H226 lung = test system: NCI-H226 lung
MDA-MB-435 = test system: MDA-MB-435
SN12C renal = test system: SN12C renal
SK-OV-3 ovarian = test system: SK-OV-3 ovarian
MCF7 breast = test system: MCF7 breast
TK-10 renal = test system: TK-10 renal
RXF 393 renal = test system: RXF 393 renal
EKVX NSCLC = test system: EKVX NSCLC
SF-539 CNS = test system: SF-539 CNS
KM12 colon = test system: KM12 colon
M14 melanoma = test system: M14 melanoma
HOP-92 NSCLC = test system: HOP-92 NSCLC
SNB-75 CNS = test system: SNB-75 CNS
CCRF-CEM leukemia = test system: CCRF-CEM leukemia
OVCAR-5 ovarian = test system: OVCAR-5 ovarian
COLO 205 colon = test system: COLO 205 colon
HL-60(TB) leukemia = test system: HL-60(TB) leukemia
OVCAR-8 ovarian = test system: OVCAR-8 ovarian
SK-MEL-5 melanoma = test system: SK-MEL-5 melanoma
HT29 colon = test system: HT29 colon
UACC-62 melanoma = test system: UACC-62 melanoma
HCC-2998 colon = test system: HCC-2998 colon
DU-145 prostate = test system: DU-145 prostate
786-0 renal = test system: 786-0 renal
MDA-MB-231 breast = test system: MDA-MB-231 breast
NCI-H23 lung = test system: NCI-H23 lung

## CC(=O)c1c(Nc2cccc(F)c2)[nH]c2c(Cl)cc(Cl)c(Cl)c2c1=O
OVCAR-4 ovarian
  GI50: 361 nM
  TGI: > 100000 nM
UACC-257 melanoma
  GI50: 363 nM
  TGI: 3150 nM
NCI-H522 lung
  GI50: 289 nM
  TGI: > 100000 nM
HOP-62 NSCLC
  GI50: 418 nM
  TGI: 11000 nM
MOLT-4 leukemia
  GI50: 356 nM
BT-549 breast
  GI50: 457 nM
  TGI: 8310 nM
U251 CNS
  GI50: 270 nM
  TGI: > 100000 nM
PC-3 prostate
  GI50: 257 nM
  TGI: 17600 nM
NCI/ADR-RES ovarian
  GI50: 297 nM
  TGI: 9890 nM
HS 578T breast
  GI50: 278 nM
  TGI: > 100000 nM
T-47D breast
  GI50: 288 nM
MALME-3M melanoma
  GI50: 264 nM
  TGI: 1020 nM
ACHN renal
  GI50: 411 nM
  TGI: > 28600 nM
NCI-H460 lung
  GI50: 360 nM
  TGI: > 100000 nM
A498 renal
  GI50: 137 nM
  TGI: 611 nM
HCT-116 colon
  GI50: 302 nM
  TGI: > 44100 nM
SF-268 CNS
  GI50: 333 nM
  TGI: > 100000 nM
HCT-15 colon
  GI50: 296 nM
  TGI: 2230 nM
SR leukemia
  GI50: 697 nM
  TGI: > 100000 nM
A549 NSCLC
  GI50: 479 nM
  TGI: > 100000 nM
SK-MEL-28 melanoma
  GI50: 377 nM
  TGI: 4830 nM
UO-31 renal
  GI50: 216 nM
  TGI: 5940 nM
CAKI-1 renal
  GI50: 259 nM
  TGI: 1830 nM
LOX IMVI melanoma
  GI50: 487 nM
  TGI: 12800 nM
SW-620 colon
  GI50: 366 nM
  TGI: > 100000 nM
IGROV1 ovarian
  GI50: 440 nM
  TGI: > 100000 nM
SF-295 CNS
  GI50: 336 nM
  TGI: 1810 nM
K-562 leukemia
  GI50: 307 nM
  TGI: > 100000 nM
SNB-19 CNS
  GI50: 384 nM
  TGI: > 100000 nM
OVCAR-3 ovarian
  GI50: 299 nM
  TGI: > 100000 nM
SK-MEL-2 melanoma
  GI50: 292 nM
  TGI: 1290 nM
RPMI-8226 leukemia
  GI50: 232 nM
  TGI: 2180 nM
NCI-H226 lung
  GI50: 343 nM
  TGI: 2930 nM
MDA-MB-435
  GI50: 425 nM
  TGI: 8550 nM
SN12C renal
  GI50: 289 nM
SK-OV-3 ovarian
  GI50: 263 nM
  TGI: 4860 nM
MCF7 breast
  GI50: 309 nM
  TGI: > 100000 nM
TK-10 renal
  GI50: 554 nM
  TGI: > 100000 nM
RXF 393 renal
  GI50: 326 nM
  TGI: 1950 nM
EKVX NSCLC
  GI50: 333 nM
  TGI: > 100000 nM
SF-539 CNS
  GI50: 369 nM
KM12 colon
  GI50: 346 nM
M14 melanoma
  GI50: 366 nM
  TGI: 7130 nM
HOP-92 NSCLC
  GI50: 88.4 nM
  TGI: 477 nM
SNB-75 CNS
  GI50: 508 nM
  TGI: > 22000 nM
CCRF-CEM leukemia
  GI50: 346 nM
  TGI: > 100000 nM
OVCAR-5 ovarian
  GI50: 1220 nM
  TGI: > 100000 nM
COLO 205 colon
  GI50: 440 nM
  TGI: 2480 nM
HL-60(TB) leukemia
  GI50: 337 nM
  TGI: 1540 nM
OVCAR-8 ovarian
  GI50: 363 nM
  TGI: > 100000 nM
SK-MEL-5 melanoma
  GI50: 184 nM
  TGI: 433 nM
HT29 colon
  GI50: 387 nM
  TGI: > 100000 nM
UACC-62 melanoma
  GI50: 253 nM
  TGI: 793 nM
HCC-2998 colon
  GI50: 333 nM
  TGI: > 100000 nM
DU-145 prostate
  GI50: 447 nM
  TGI: > 100000 nM
786-0 renal
  GI50: 471 nM
  TGI: > 100000 nM
MDA-MB-231 breast
  GI50: 259 nM
  TGI: 1940 nM
NCI-H23 lung
  GI50: 262 nM
  TGI: 1940 nM
